Experimental data: ChEMBL document CHEMBL5316338, “Discovery of Novel PTP1B Inhibitors with Once-Weekly Therapeutic Potential for Type 2 Diabetes: Design, Synthesis, and In Vitro and In Vivo Investigations of BimBH3 Peptide Analogues” (J Med Chem, 2023)
The source made the active and inactive calls. The rule behind the calls is not given here. Square brackets hold non-standard residues; d marks the D form. Peptide text beside a SMILES is read from it. * marks the point of attachment. ξ: configuration not given here. C22 diacid = O=C(O)CCCCCCCCCCCCCCCCCCCCC(=O)*; C20 diacid = O=C(O)CCCCCCCCCCCCCCCCCCC(=O)*; Stearoyl = CCCCCCCCCCCCCCCCCC(=O)*; ξR = N=C(N)NCCCC(N)C(=O)O

What was measured:
Mus musculus [1] = test: Antidiabetic activity against C57BL/Ks db/db mouse assessed as redcution in fasting blood glucose level at 1 umol/kg, sc administered once a week and measured on day 8 by glucometer analysis (reference value: 27.7 +/- 3.7 […]); type: functional; conditions: dose 1 µmol/kg, time 8 day
Mus musculus [2] = test: Antidiabetic activity against sc dosed C57BL/Ks db/db mouse assessed as reduction in serum insulin level at 1 umol/kg by ELISA analysis; type: functional, organism-based; conditions: dose 1.0 µmol/kg
[3] = biological target: T1, Tyrosine-protein phosphatase non-receptor type 1 (Homo sapiens, UniProt P18031); test: Inhibition of N-terminal His tagged recombinant human PTP1B expressed in Escherichia coli using pNPP as substrate assessed as substrate hydrolysis
T1 sequence (P18031 whole entry): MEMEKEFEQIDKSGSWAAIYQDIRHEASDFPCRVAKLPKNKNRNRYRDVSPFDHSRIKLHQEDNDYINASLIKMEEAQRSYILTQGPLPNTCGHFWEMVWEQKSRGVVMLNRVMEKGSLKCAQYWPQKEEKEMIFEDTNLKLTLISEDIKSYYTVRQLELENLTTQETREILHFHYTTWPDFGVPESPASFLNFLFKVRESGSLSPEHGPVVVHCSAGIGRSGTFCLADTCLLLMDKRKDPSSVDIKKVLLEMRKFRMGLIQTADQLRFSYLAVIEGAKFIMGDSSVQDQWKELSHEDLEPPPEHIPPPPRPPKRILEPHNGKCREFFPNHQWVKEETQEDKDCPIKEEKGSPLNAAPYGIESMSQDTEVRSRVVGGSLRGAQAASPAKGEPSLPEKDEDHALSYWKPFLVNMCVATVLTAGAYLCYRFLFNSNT

Mus musculus [4] = test: Antidiabetic activity against over-night fasted C57BL/ks db/db mouse assessed as suppression of increased blood glucose concentration at 1 uM/kg, sc pretreated with compound for 4 weeks followed by insulin stimulation and measured for 90 mins by insulin tolerance test; type: functional, organism-based; conditions: time 40410.0 min
Proteinase K = test: Stability of compound assessed as Proteinase K (unknown origin) mediated compound degradation by measuring half-life by HPLC analysis; type: ADME
Mus musculus [5] = test: Antidiabetic activity against C57BL/Ks db/db mouse assessed as redcution in fasting blood glucose level at 1 umol/kg, sc administered once a week and measured on day 22 by glucometer analysis (reference value: 27.4 +/- 1.8 […]); type: functional; conditions: dose 1 µmol/kg, time 22 day
Chymotrypsin [6] = biological target: Chymotrypsin (Homo sapiens, UniProt Q99895+P17538+P40313+Q6GPI1); test: Stability of compound assessed as chymotrypsin (unknown origin) mediated compound degradation by measuring fold change of half-life by RP-HPLC analysis relative to BimBH312-mer peptide; type: ADME, protein assay
Mus musculus [7] = test: Antidiabetic activity against C57BL/Ks db/db mouse assessed as redcution in fasting blood glucose level at 1 umol/kg, sc administered once a week and measured on day 26 by glucometer analysis (reference value: 31.4 +/- 2.2 […]); type: functional; conditions: dose 1 µmol/kg, time 26 day
Mus musculus [8] = test: Antidiabetic activity against C57BL/Ks db/db mouse assessed as redcution in fasting blood glucose level at 1 umol/kg, sc administered once a week and measured on day 15 by glucometer analysis (reference value: 27.3 +/- 2.4 […]); type: functional; conditions: dose 1 µmol/kg, time 15 day
[9] = Stability of compound assessed as Proteinase K (unknown origin) mediated compound degradation by measuring fold change of half-life by HPLC analysis relative to BimBH312-mer peptide; type: ADME
Mus musculus [10] = test: Antidiabetic activity against C57BL/Ks db/db mouse assessed as redcution in fasting blood glucose level at 1 umol/kg administered subcutaneously and measured immediately by glucometer analysis (reference value: 19.0 +/- 2.7 […]); type: functional; conditions: dose 1 µmol/kg; route sc
[11] = biological target: T2, Tyrosine-protein phosphatase non-receptor type 1 (Homo sapiens) (UniProt P18031); test: Inhibition of N-terminal His tagged recombinant human PTP1B expressed in Escherichia coli using pNPP as substrate assessed as substrate hydrolysis at 40 umol/L relative to control; conditions: dose 40.0 µmol/L
T2 sequence (whole entry): T1 sequence (P18031 whole entry)

Homo sapiens = species on record: Homo sapiens; test: Selectivity index, ratio of IC50 for inhibition of recombinant human TC-PTP (1 to 314 residues) expressed in baculovirus infected insect cells to IC50 for inhibition of N-terminal His-tagged recombinant human PTP1B expressed in Escherichia coli
[12] = Stability of compound assessed as Pepsin (unknown origin) mediated compound degradation by measuring fold change of half-life by HPLC analysis relative to BimBH312-mer peptide; type: ADME; conditions: human
Mus musculus [13] = test: Antidiabetic activity against C57BL/Ks db/db mouse assessed as redcution in fasting blood glucose level at 1 umol/kg, sc administered once a week and measured on day 28 by glucometer analysis (reference value: 32.4 +/- 1.1 […]); type: functional; conditions: dose 1 µmol/kg, time 28 day
Mus musculus [14] = test: Antidiabetic activity against C57BL/Ks db/db mouse assessed as redcution in fasting blood glucose level at 1 umol/kg, sc administered once a week and measured on day 24 by glucometer analysis (reference value: 30.2 +/- 3.2 […]); type: functional; conditions: dose 1 µmol/kg, time 24 day
Mus musculus [15] = test: Antidiabetic activity against over-night fasted C57BL/ks db/db mouse assessed as suppression of increased blood glucose concentration at 1 uM/kg, sc pretreated with compound for 4 weeks followed by oral glucose stimulation and measured upto 120 mins by oral glucose tolerance test; type: functional, organism-based; conditions: time 40440.0 min
Mus musculus [16] = test: Antidiabetic activity against sc dosed C57BL/Ks db/db mouse assessed as reduction in glucagon level at 1 umol/kg by ELISA analysis; type: functional, organism-based; conditions: dose 1.0 µmol/kg
Mus musculus [17] = test: Antidiabetic activity against sc dosed C57BL/Ks db/db mouse assessed as reduction in C-peptide level at 1 umol/kg by ELISA analysis; type: functional, organism-based; conditions: dose 1.0 µmol/kg
Carboxypeptidase A1 = biological target: T3, Carboxypeptidase A1 (Homo sapiens, UniProt P15085); test: Stability of compound assessed as carboxypeptidase A (unknown origin) mediated compound degradation by measuring fold change of half-life by RP-HPLC analysis relative to BimBH312-mer peptide; type: ADME
T3 sequence (P15085 whole entry): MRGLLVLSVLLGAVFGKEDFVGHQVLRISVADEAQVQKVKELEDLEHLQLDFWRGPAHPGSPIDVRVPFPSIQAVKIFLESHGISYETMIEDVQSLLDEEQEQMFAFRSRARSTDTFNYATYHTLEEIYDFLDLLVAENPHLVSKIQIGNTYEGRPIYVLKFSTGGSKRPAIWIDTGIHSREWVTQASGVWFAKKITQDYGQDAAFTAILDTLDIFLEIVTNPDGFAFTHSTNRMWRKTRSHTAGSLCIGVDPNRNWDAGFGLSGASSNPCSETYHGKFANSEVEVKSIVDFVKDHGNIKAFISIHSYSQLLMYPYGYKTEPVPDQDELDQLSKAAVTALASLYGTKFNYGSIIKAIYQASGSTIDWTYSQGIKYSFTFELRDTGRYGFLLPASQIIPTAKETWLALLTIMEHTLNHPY

chymotrypsin [18] = biological target: chymotrypsin (Homo sapiens, UniProt P17538+P40313+Q6GPI1+Q99895); test: Stability of compound assessed as chymotrypsin (unknown origin) mediated compound degradation by measuring half-life by RP-HPLC analysis; type: ADME, protein assay
[19] = biological target: T4, Tyrosine-protein phosphatase non-receptor type 2 (Homo sapiens, UniProt P17706); test: Inhibition of recombinant human TC-PTP (1 to 314 residues) expressed in baculovirus infected insect cells using pNPP as substrate assessed as substrate hydrolysis; parameters: species or system Insect cell
T4 sequence (P17706 whole entry): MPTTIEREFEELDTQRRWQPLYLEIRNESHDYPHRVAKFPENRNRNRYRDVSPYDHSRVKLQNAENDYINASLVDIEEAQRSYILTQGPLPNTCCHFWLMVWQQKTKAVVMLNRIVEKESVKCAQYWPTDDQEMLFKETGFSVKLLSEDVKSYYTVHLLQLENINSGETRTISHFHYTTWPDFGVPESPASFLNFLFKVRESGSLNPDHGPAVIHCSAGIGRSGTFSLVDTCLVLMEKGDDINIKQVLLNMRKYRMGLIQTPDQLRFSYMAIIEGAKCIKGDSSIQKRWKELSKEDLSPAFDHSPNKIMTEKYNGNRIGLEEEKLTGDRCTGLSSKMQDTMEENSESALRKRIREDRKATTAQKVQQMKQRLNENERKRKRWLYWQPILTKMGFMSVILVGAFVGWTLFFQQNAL

carboxypeptidase A = biological target: T5, carboxypeptidase A (Homo sapiens, UniProt P15085); test: Stability of compound assessed as carboxypeptidase A (unknown origin) mediated compound degradation by measuring half-life by RP-HPLC analysis; type: ADME
T5 sequence (P15085 whole entry): T3 sequence (P15085 whole entry)

Pepsin = test: Stability of compound assessed as Pepsin (unknown origin) mediated compound degradation by measuring half-life by HPLC analysis; type: ADME; conditions: human
[20] = biological target: T6, Tyrosine-protein phosphatase non-receptor type 2 (Homo sapiens) (UniProt P17706); test: Inhibition of recombinant human TC-PTP (1 to 314 residues) expressed in baculovirus infected insect cells using pNPP as substrate assessed as substrate hydrolysis at 50 umol/L relative to control; conditions: Insect cell, dose 50.0 µmol/L
T6 sequence (whole entry): T4 sequence (P17706 whole entry)

SMILES | Fasting blood glucose level (Mus musculus [1]) | Activity (Mus musculus [2]) | IC50 [3] | Activity (Mus musculus [4]) | half-life (Proteinase K) | fold change (FC) (Chymotrypsin [6]) | Fasting blood glucose level (Mus musculus [7]) | Fasting blood glucose (Mus musculus [8]) | fold change (FC) [9] | Fasting blood glucose level (Mus musculus [10]) | inhibition [11] | Ratio IC50 (Homo sapiens) | fold change (FC) [12] | Fasting blood glucose level (Mus musculus [13]) | Fasting blood glucose level (Mus musculus [14]) | Activity (Mus musculus [15]) | Activity (Mus musculus [16]) | Activity (Mus musculus [17]) | fold change (FC) (Carboxypeptidase A1) | half-life (chymotrypsin [18]) | other results
CCCCCCCCCCCCCCCCCC(=O)N[C@H](C(=O)N[C@@H](C)C(=O)N[C@@H](CCC(N)=O)C(=O)N[C@@H](CCC(=O)O)C(=O)N[C@@H](CC(C)C)C(=O)N[C@@H](CCCNC(=N)N)C(=O)NC(CCCNC(=N)N)C(=O)N[C@H](C(=O)NCC(=O)N[C@@H](CC(=O)O)C(=O)N[C@@H](CCC(=O)O)C(=O)N[C@@H](Cc1ccccc1)C(=O)O)[C@@H](C)CC)[C@@H](C)CC (stereo partly drawn) (Stearoyl-IAQELR[ξR]IGDEF-OH) | 11.8 mmol/L | Active | 120 nM | Active | 1.43 h | 170.5 | 16.3 mmol/L | 12.8 mmol/L | 28.6 | 20.4 mmol/L | > 50% | 113 | 334.5 | 19.8 mmol/L | 18.1 mmol/L | Active | Active | Active | 549.1 | 7.33 h | Fasting blood glucose level (Mus musculus [5]): 15.6 mmol/L; IC50 [19]: 13600 nM; half-life (carboxypeptidase A): 17.6 h; half-life (Pepsin): 7.36 h
CC[C@H](C)[C@H](NC(=O)CCCCCCCCCCCCCCCCCCC(=O)O)C(=O)N[C@@H](C)C(=O)N[C@@H](CCC(N)=O)C(=O)N[C@@H](CCC(=O)O)C(=O)N[C@@H](CC(C)C)C(=O)N[C@@H](CCCNC(=N)N)C(=O)NC(CCCNC(=N)N)C(=O)N[C@H](C(=O)NCC(=O)N[C@@H](CC(=O)O)C(=O)N[C@@H](CCC(=O)O)C(=O)N[C@@H](Cc1ccccc1)C(=O)O)[C@@H](C)CC (stereo partly drawn) ({C20 diacid}-IAQELR[ξR]IGDEF-OH) | 11.3 mmol/L | Active | 443 nM | Active | 0.9 h | 11.6 | 19 mmol/L | 9.7 mmol/L | 18 | 18.6 mmol/L | > 50% | > 113 | 69.1 | 19.2 mmol/L | 16 mmol/L | Active | Active | Active | 7.8 | 0.5 h | inhibition [20]: < 50%; IC50 [19]: > 50000 nM; half-life (carboxypeptidase A): 0.25 h; half-life (Pepsin): 1.52 h
CC[C@H](C)[C@H](NC(=O)CCCCCCCCCCCCCCCCCCCCC(=O)O)C(=O)N[C@@H](C)C(=O)N[C@@H](CCC(N)=O)C(=O)N[C@@H](CCC(=O)O)C(=O)N[C@@H](CC(C)C)C(=O)N[C@@H](CCCNC(=N)N)C(=O)NC(CCCNC(=N)N)C(=O)N[C@H](C(=O)NCC(=O)N[C@@H](CC(=O)O)C(=O)N[C@@H](CCC(=O)O)C(=O)N[C@@H](Cc1ccccc1)C(=O)O)[C@@H](C)CC (stereo partly drawn) ({C22 diacid}-IAQELR[ξR]IGDEF-OH) | 11.5 mmol/L | Active | 200 nM | Active | 0.51 h | 158.4 | 19.7 mmol/L | 11 mmol/L | 10.2 | 19.7 mmol/L | > 50% | > 250 | 64.1 | 17 mmol/L | 16 mmol/L | Active | Active | Active | 40 | 6.81 h | Fasting blood glucose level (Mus musculus [5]): 11.4 mmol/L; inhibition [20]: < 50%; IC50 [19]: > 50000 nM; half-life (carboxypeptidase A): 1.28 h; half-life (Pepsin): 1.41 h
